Measurements taken from patent publication US20090131500A1, “PORPHYRIN DERIVATES AND THEIR USE AS PHOTOSENSITIZERS IN PHOTODYNAMIC THERAPY” (priority 2006, published 2009).

How the values were obtained:
Assay type in all cases: physicochemical
[1] = Ground state absorption spectrum
Experimental: (§1) The ground state absorption spectra were recorded at room temperature using a commercial spectrophotometer Shimadzu UV-2501PC. Steady-state fluorescence spectra were measured in 1 cm×1 cm quartz optical cells using a combination of a cw-Xenon lamp (XBO 150) and a monochromator (Lot-Oriel, bandwidth 10 nm) for excitation and a polychromator with a cooled CCD matrix as a detector system (Lot-Oriel, Instaspec IV).

[2] = Steady-state fluorescence spectrum (fluorescence quantum yield)
Experimental: as §1

[3] = Time-resolved singlet oxygen luminescence at 1270 nm (singlet oxygen quantum yield); settings: excitation at 510 nm, Pheo as reference
Experimental: Photosensitizer-generated time-resolved singlet oxygen luminescence was measured at 1270 nm. A nanosecond Nd-YAG laser (BMI) equipped with an OPO (BMI) was used to excite the samples at 510 nm and the luminescence signal was recorded by a germanium pin diode (Northcoast). To calculate the singlet oxygen quantum yield, (DA, the solution of Pheo in DMF as well as in ethanol were used as reference (ΦΔ^Pheo=0.52).

[4] = Transient absorption spectra (ISC / triplet quantum yield)
Experimental: To measure transient absorption spectra (TAS), a white light continuum was generated as a test beam in a cell with D2O/H2O mixture using intense 25 ps single pulses from a Nd:YAG laser (Ekspla) at 1064 nm. Before passing through the sample, the continuum radiation was split to get a reference spectrum. The transmitted as well as the reference beam were focused into two optical fibers and were recorded simultaneously at different traces on a CCD-matrix (Lot-Oriel, Instaspec IV). The tunable radiation of a OPO/OPG (Ekspla, tuning range 210-2300 nm) pumped by the third harmonic of the same laser was used for excitation of the samples. The mechanical delay line allowed measuring the light-induced changes in the absorption spectrum at different time delays up to 15 ns after excitation.

**Q.** With “5^4, 10^4, 15^4, 20^4-tetra-t-butyl[3,5^2]-ethano-5^6-methyl-3^1-oxo-5,10,15,20-tetraphenylporphyrin [FB-1-CO]” as the substance, how does the “absorption band of the first excited singlet state” value ([1]; in ethanol (FIG. 1)) read?
**A.** 690 nm

**Q.** What about the “Qy-absorption at λ” value ([1]; room temperature) of the same substance?
**A.** 690 nm

**Q.** What about the “fluorescence quantum yield ΦFl” value [2] of the same substance?
**A.** 0.02

**Q.** And the “singlet oxygen quantum yield ΦΔ” value [3]?
**A.** 0.9

**Q.** And the “ISC quantum yield ΦISC” value [4]?
**A.** 0.95±0.05
